This data set is described as follows: gradient 5% acetonitrile 3 min, to 50% in 2 min, to 85% in 15 min, held 3 min, 100 µL/min. Conditions: column: Zorbax Extend-C18 2.1 x 50 mm; eluents: water / acetonitrile, 0.1% formic acid. The procedure, abridged: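 Standards, all pure, were combined into mixtures of ~100 molecules and run at 100 μL/min on a Zorbax Extend-C18 column (2.1 × 50 mm, 1.8 μm) with water and acetonitrile, each containing 0.1% formic acid. A coupled quadrupole time-of-flight mass spectrometer operated in positive and negative ionization mode. Retention time values come from computationally picked adduct peaks, each inspected manually.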
Consider `Cc1ccc(=O)n(CCNC(=O)Cc2cn(C)c3ccccc23)n1`, for which the RP-LC retention time is 620 s.

`CN1CCc2nnc(C3CCN(C(=O)Nc4cc(Cl)cc(Cl)c4)C3)n2CC1` (stereo not drawn) returned an RP-LC retention time of 623 s.

For the compound `CCc1cc(=O)n(CC(=O)Nc2cc(OC)cc(OC)c2)c(N2CCOCC2)n1`, the RP-LC retention time came to 738 s.

`O=C(NC1CCN(c2cc(-c3ccc(F)cc3)[nH]n2)C1)c1ccc(Br)cc1` (stereo not drawn) came in with an RP-LC retention time of 864 s.

Consider `CC(C(=O)NCc1nc2ccccc2[nH]1)n1nc(-c2cccs2)ccc1=O` (stereo not drawn), for which the RP-LC retention time is 576 s.

Compound `CC(C)S(=O)(=O)c1cc2c(cc1NC(=O)c1cccc(F)c1)n(C)c(=O)n2C` gave an RP-LC retention time of 846 s.

Take `COc1ccc(C(=O)N2CCC3(CC2)NC(=O)c2ccc(F)cc2N3C)c(OC)c1`: the RP-LC retention time came out at 715 s.

The compound `CCOc1ccc(NC(=O)C2CCN(S(=O)(=O)c3ccc4c(c3)sc(=O)n4C)CC2)cc1` came in with an RP-LC retention time of 798 s.

In the case of `Cc1ccc(NC(=O)N2CCc3nc(CNC(=O)C4CCC4)n(C)c3C2)cc1`, the RP-LC retention time was 598 s.

With `Cc1ccc(-c2nnc(-c3ccc(N4CCC(C)CC4)nc3)o2)cc1`, the RP-LC retention time turned out to be 1310 s.

In the case of `CC1(C)C(=O)N(CC(=O)Nc2cccc(Br)c2)c2ccccc21`, the RP-LC retention time was 968 s.

For the compound `COc1ccc(NS(=O)(=O)c2ccc(-c3c(C)noc3C)cc2)cc1`, the RP-LC retention time is 877 s.

`CNC(=O)c1nc(N2CCSCC2)c2cnn(C)c2n1` came in with an RP-LC retention time of 632 s.

Consider `O=C(Cn1cnc2c(sc3nc(-c4ccccc4)ccc32)c1=O)NCCC1=CCCCC1`, for which the RP-LC retention time worked out at 1090 s.

In turn, `COc1ccc(-c2noc(Cn3c(=O)n(C(C)C)c(=O)c4ccccc43)n2)cc1` yielded an RP-LC retention time of 1110 s.

`COc1ccc(CCNC(=O)NC(C)Cc2cccs2)cc1` (stereo not drawn) returned an RP-LC retention time of 781 s.

`O=C(NCc1csc(-c2ccccc2)n1)C1CCN(C(=O)c2ccc(F)c(F)c2)CC1` had an RP-LC retention time of 814 s.

With `Cc1ccc2c(c1)C(=O)NC1(CCN(C(=O)c3cccc(F)c3)CC1)N2C`, the RP-LC retention time amounted to 756 s.

In the case of `COc1nn(C)cc1C(=O)NCc1cc(-c2cccs2)on1`, the RP-LC retention time turned out to be 662 s.

Take `Cc1c(Cl)cccc1NC(=O)NCC(c1cccnc1)c1c[nH]c2ccccc12` (stereo not drawn): the RP-LC retention time worked out at 706 s.

The compound `Cc1c(C(=O)O)nnn1-c1ccc(F)c(Cl)c1` registered an RP-LC retention time of 726 s.

For `CCn1cnc(S(=O)(=O)N2CCC(C(=O)Nc3ccc(C)c(N(C)C)c3)CC2)c1`, the RP-LC retention time stood at 588 s.

As for `CCN1C(=O)c2cccnc2Sc2cc(NC(=O)c3cccc(C)c3)ccc21`, the RP-LC retention time worked out at 870 s.

In turn, `Cc1ccc(NC(=O)N(C)CCc2noc(COc3ccccc3)n2)cc1C` showed an RP-LC retention time of 947 s.

The compound `Cc1ccc(-c2nc(C)cc3nn(CC(=O)Nc4cccc(Br)c4)c(=O)n23)cc1` had an RP-LC retention time of 953 s.

Regarding `Cc1noc(CNC(=O)Cc2ccc(F)cc2)n1`, the RP-LC retention time was found to be 643 s.

The compound `Cc1noc(C)c1C1CCCN1C(=O)c1ccc2c(c1)OCO2` (stereo not drawn) gave an RP-LC retention time of 722 s.

`O=C(c1cn(-c2cc(N3CCCCC3)ncn2)cn1)N1CCN(c2ccccn2)CC1`: the RP-LC retention time is 636 s.

Regarding `COc1cc2ncnc(Nc3ccc(F)c(Cl)c3)c2cc1NC(=O)/C=C/CN1CCCCC1`, the RP-LC retention time came to 704 s.

`Cc1nnc(-c2ccc(S(=O)(=O)N3CCN(C4CCCCC4)CC3)o2)o1` showed an RP-LC retention time of 622 s.

In turn, `CCN1C(=O)COc2ccc(-c3nc(NC(=O)C4CCCCC4)sc3C)cc21` yielded an RP-LC retention time of 652 s.

In turn, `O=C(CCC1CCN(c2cc(NC3CC3)ncn2)CC1)NCc1ccccc1Cl` came in with an RP-LC retention time of 676 s.

For the compound `COc1ccc2[nH]c(I)c(CCNC(C)=O)c2c1`, the RP-LC retention time came out at 760 s.

Source of the values: the METLIN SMRT retention time set (Domingo-Almenara et al. 2019).
